Assay results taken from the supplement of paper PMC10307832.

Key:
Assay in all cases: relative viability (nuclei count vs DMSO), 5 days (fraction); higher = more cells survive
Vemurafenib + Vorinostat = compound: CCCS(=O)(=O)Nc1ccc(F)c(C(=O)c2c[nH]c3ncc(-c4ccc(Cl)cc4)cc23)c1F [Vemurafenib] + O=C(CCCCCCC(=O)Nc1ccccc1)NO [Vorinostat] (partner 1 µM)
Summary of the method: (§1)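 Lung cancer cell lines in 1536-well plates got either a single drug or a fixed anchor-drug dose together with five library-drug doses (not always all listed) in √10 steps, by pin tool, on the day after seeding. Nuclei were counted after 5 days, and relative viability is the treated-to-vehicle ratio of nuclei counts. Values are medians of duplicate plates.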

OSI-027 + Tozasertib = compound: COc1cccc2cc(-c3nc([C@H]4CC[C@H](C(=O)O)CC4)n4ncnc(N)c34)[nH]c12 [OSI-027] + Cc1cc(Nc2cc(N3CCN(C)CC3)nc(Sc3ccc(NC(=O)C4CC4)cc3)n2)n[nH]1 [Tozasertib] (partner 0.1 µM)
Summary of the method: as §1

Alpelisib + AZD7762 = compound: Cc1nc(NC(=O)N2CCC[C@H]2C(N)=O)sc1-c1ccnc(C(C)(C)C(F)(F)F)c1 [Alpelisib] + NC(=O)Nc1cc(-c2cccc(F)c2)sc1C(=O)N[C@H]1CCCNC1 [AZD7762] (partner 0.2 µM)
Summary of the method: as §1

Vemurafenib + Trametinib = compound: CCCS(=O)(=O)Nc1ccc(F)c(C(=O)c2c[nH]c3ncc(-c4ccc(Cl)cc4)cc23)c1F [Vemurafenib] + CC(=O)Nc1cccc(-n2c(=O)n(C3CC3)c(=O)c3c(Nc4ccc(I)cc4F)n(C)c(=O)c(C)c32)c1 [Trametinib] (partner 0.02 µM)
Summary of the method: as §1

| Cell Line | relative viability (Vemurafenib + Vorinostat; first compound 0.03162 µM) | relative viability (Vemurafenib + Vorinostat; first compound 0.1 µM) | relative viability (Vemurafenib + Vorinostat; first compound 0.3162 µM) | relative viability (Vemurafenib + Vorinostat; first compound 1 µM) | relative viability (OSI-027 + Tozasertib; first compound 0.01 µM) | relative viability (OSI-027 + Tozasertib; first compound 0.03162 µM) | relative viability (OSI-027 + Tozasertib; first compound 0.1 µM) | relative viability (OSI-027 + Tozasertib; first compound 0.3162 µM) | relative viability (OSI-027 + Tozasertib; first compound 1 µM) | relative viability (Alpelisib + AZD7762; first compound 0.04 µM) | relative viability (Alpelisib + AZD7762; first compound 0.1265 µM) | relative viability (Alpelisib + AZD7762; first compound 0.4 µM) | relative viability (Alpelisib + AZD7762; first compound 1.265 µM) | relative viability (Alpelisib + AZD7762; first compound 4 µM) | relative viability (Vemurafenib + Trametinib; first compound 0.03162 µM) | relative viability (Vemurafenib + Trametinib; first compound 0.1 µM) | relative viability (Vemurafenib + Trametinib; first compound 0.3162 µM) | relative viability (Vemurafenib + Trametinib; first compound 1 µM) |
| --- | --- | --- | --- | --- | --- | --- | --- | --- | --- | --- | --- | --- | --- | --- | --- | --- | --- | --- |
| NCI-H441 | 0.875 | 0.663 | 0.652 | 0.642 | 0.625 | 0.72 | 0.629 | 0.535 | 0.489 | 1.28 | 1.14 | 1.35 | 1.22 | 1.07 | 0.434 | 0.431 | 0.611 | 0.472 |
| NCI-H460 | 0.661 | 0.729 | 0.665 | 0.723 | 0.511 | 0.338 | 0.469 | 0.593 | 0.278 | 0.542 | 0.638 | 0.746 | 0.513 | 0.404 | 0.137 | 0.131 | 0.138 | 0.218 |
| NCI-H522 | 0.901 | 0.846 | 0.835 | 0.714 | 0.536 | 0.625 | 0.524 | 0.522 | 0.431 | 0.791 | 0.987 | 0.729 | 0.702 | 0.678 | 0.695 | 0.63 | 0.786 | 0.783 |
| NCI-H596 | 0.587 | 0.742 | 0.465 | 0.497 | 0.999 | 0.804 | 0.859 | 0.811 | 0.47 | 0.895 | 1.05 | 1.03 | 0.725 | 0.472 | 0.792 | 0.723 | 0.885 | 0.888 |
| NCI-H647 | 0.411 | 0.643 | 0.6 | 0.442 | 0.401 | 0.291 | 0.292 | 0.433 | 0.147 | 0.586 | 0.322 | 0.688 | 0.393 | 0.325 | 0.496 | 0.435 | 0.37 | 0.488 |
| NCI-H650 | 0.413 | 0.384 | 0.263 | 0.296 | 0.711 | 0.738 | 0.637 | 0.605 | 0.411 | 1.08 | 0.769 | 0.931 | 0.773 | 0.837 | 1.05 | 0.944 | 0.808 | 1.09 |
| NCI-H727 | 1.01 | 0.978 | 1.41 | 1.27 | 0.584 | 0.65 | 0.716 | 0.725 | 0.456 | 0.472 | 0.567 | 0.625 | 0.673 | 0.555 | 0.407 | 0.374 | 0.487 | 0.399 |
| NCI-H838 | 0.683 | 0.726 | 0.6 | 0.844 | 0.307 | 0.482 | 0.264 | 0.26 | 0.214 | 0.916 | 0.946 | 1.02 | 0.775 | 0.86 | 0.527 | 0.528 | 0.257 | 0.548 |
| NCI-H1355 | 0.56 | 0.58 | 0.566 | 0.642 | 0.546 | 0.492 | 0.541 | 0.461 | 0.361 | 0.792 | 0.78 | 0.704 | 0.636 | 0.553 | 0.454 | 0.35 | 0.464 | 0.523 |
| NCI-H1395 | 0.627 | 0.707 | 0.499 | 0.709 | 0.675 | 0.718 | 0.683 | 0.67 | 0.611 | 0.438 | 0.379 | 0.404 | 0.393 | 0.392 | 1.04 | 1.03 | 0.89 | 0.971 |
| NCI-H1437 | 0.798 | 0.825 | 0.873 | 0.945 | 0.418 | 0.379 | 0.456 | 0.413 | 0.318 | 1.12 | 1.18 | 1.12 | 1.02 | 1.06 | 0.474 | 0.538 | 0.626 | 0.629 |
| NCI-H1648 | – | 0.315 | 0.706 | 0.546 | 0.412 | – | 0.419 | 0.366 | 0.305 | 0.581 | 0.591 | 0.821 | 0.62 | 0.521 | – | 0.326 | 0.569 | 0.58 |
| NCI-H1651 | 0.524 | 0.581 | 0.471 | 0.625 | 0.669 | 0.642 | 0.801 | 0.692 | 0.591 | 0.458 | 0.442 | 0.535 | 0.536 | 0.359 | 0.805 | 0.741 | 0.773 | 0.827 |
| NCI-H1666 | 0.972 | 1.05 | 1.08 | 1.01 | 0.611 | 0.686 | 0.646 | 0.629 | 0.537 | 0.902 | 0.762 | 1.03 | 0.865 | 0.711 | 0.928 | 0.786 | 1.04 | 0.86 |
| NCI-H1734 | 0.809 | 0.783 | 0.759 | 0.702 | 0.299 | 0.271 | 0.265 | 0.222 | 0.24 | 0.604 | 0.556 | 0.584 | 0.397 | 0.209 | 0.655 | 0.641 | 0.66 | 0.643 |
| NCI-H1755 | 0.749 | 0.728 | 0.68 | 0.778 | 0.532 | 0.559 | 0.524 | 0.484 | 0.409 | 0.378 | 0.544 | 0.465 | 0.326 | 0.362 | 0.812 | 0.73 | 0.761 | 0.763 |
